Test results from publication PMC11014985, “TCTP regulates genotoxic stress and tumorigenicity via intercellular vesicular signaling” (EMBO Reports, 2024).

Target: T1, recombinant human TCTP (Homo sapiens, UniProt P13693)
T1 construct: gene TPT1; recombinant; RED-NHS fluorescently labelled for MST
T1 sequence (P13693 1-172): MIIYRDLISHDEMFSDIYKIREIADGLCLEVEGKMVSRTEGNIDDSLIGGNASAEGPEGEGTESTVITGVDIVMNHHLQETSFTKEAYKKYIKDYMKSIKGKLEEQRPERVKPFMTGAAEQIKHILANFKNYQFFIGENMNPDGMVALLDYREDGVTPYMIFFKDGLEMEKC
Assay: microscale thermophoresis
Format: binding

SMILES | Kd [µM]
CN[C@H]1CC[C@@H](c2ccc(Cl)c(Cl)c2)c2ccccc21 [sertraline] | 15.4 ± 1.4
CSc1ccc2c(c1)N(CCC1CCCCN1C)c1ccccc1S2 (centres unmarked) [thioridazine] | 5.39 ± 2.1
